# Assays:
# [1] = molecular target: T1, human GR ligand-binding domain (Homo sapiens, UniProt P04150); test: MARCoNI peptide interaction profiling (coregulator-nuclear receptor interaction); assay type: biochemical; settings: for interactions at a number of motifs (dexamethasone-exclusive cluster): 1 µM; for ligand-induced interaction at the majority of coregulator motifs: cortisol 1 µM, dexamethasone 1 µM
# T1 construct: purchased Invitrogen PV4689
# T1 sequence (P04150 524-758 limits assumed): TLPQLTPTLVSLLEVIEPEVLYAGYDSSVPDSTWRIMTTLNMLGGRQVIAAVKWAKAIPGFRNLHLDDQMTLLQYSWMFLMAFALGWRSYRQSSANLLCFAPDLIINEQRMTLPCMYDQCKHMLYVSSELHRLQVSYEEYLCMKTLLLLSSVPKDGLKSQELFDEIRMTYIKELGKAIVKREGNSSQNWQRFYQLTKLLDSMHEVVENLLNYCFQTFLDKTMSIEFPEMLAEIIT
# Experimental: As the assay utilizes human GR, experiments were performed with cortisol rather than corticosterone. […] Incubation was performed at 20°C in a PamStation96 (PamGene International, Den Bosch, Netherlands) for 40 min. Receptor binding to each peptide on the array, reflected by a fluorescent signal, was quantified by analysis of .tiff images using BioNavigator software (PamGene International).
# male C57Bl/6J mice = test: Subchronic corticosterone exposure (pellet): body composition, organ weights, leukocytes, plasma insulin, glucose, lipids; assay type: in vivo
# Experimental: (§1) All studies involving animals were approved by the institutional ethics committee on animal care and experimentation at the Leiden University Medical Center. The 8-week old male C57Bl/6J mice (Charles River) were housed in ventilated cages with a 12 h light:12 h darkness regime and ad libitum access to food and water. In the acute corticosterone exposure experiments, mice received a synthetic chow diet (Research Diets, New Brunswick, NJ, USA) containing vehicle or CORT125281 (6, 20 or 60 mg/kg/day, Corcept Therapeutics, Menlo Park, CA, USA) for 6 days. […] Mice were treated daily with vehicle, 60 mg/kg mifepristone (Corcept Therapeutics) or 60 mg/kg CORT125281 (dissolved in PBS with 0.1% Tween 80 and 0.5% hydroxypropylmethylcellullose, Corcept Therapeutics) via oral gavage for 5 days, after which mice were killed by CO2 inhalation. Throughout the experiment, body weight was monitored and body composition was determined with EchoMRI™ (Frankfurt, Germany). After 5 days, blood was collected from the lateral tail vain in paraoxon-coated capillaries after a 6-h fast. Plasma triglyceride, total cholesterol, free fatty acid, glucose and insulin levels were determined using commercially available kits (Roche; Instruchemie, Delfzijl, Netherlands and Crystal Chem, Zaandam, Netherlands). Blood concentrations of the major leukocyte classes, that is, lymphocytes, monocytes and eosinophils, were determined in whole blood using an automatic veterinary hematology analysis (Sysmex XT-2000iV; Goffin Meyvis, Etten-Leur, the Netherlands).
# (§2) In both acute and subchronic corticosterone experiments, relevant tissues (including quadriceps muscle, interscapular BAT, gonadal white adipose tissue (WAT), adrenals, spleen, thymus, pituitary and hippocampus) were collected to determine tissue weight and/or for further molecular analysis.
# [2] = tested on: GR transcriptional activity; test: Subchronic corticosterone exposure: RT-qPCR of GR and insulin target genes in tissues; assay type: in vivo, C57Bl/6J mice
# Experimental: as §1, §2
# (§3) Total RNA was isolated from snap-frozen tissues using TriPure isolation reagent (Roche). After reverse transcription to cDNA (Promega), RT-qPCR was performed using IQ SYBR-Green supermix and MyIQ thermal cycler (Bio-RAD CFX96). Primers were tested for high efficiency (90–110%) and for amplification of a single PCR product. All primer sequences are listed in Supplementary Table 1 (see section on supplementary materials given at the end of this article), with the exception of Ncor1 and Ncor2 which were purchased from Qiagen. Fold change expression was calculated using the 2^−ΔΔ^CT method.
# GR [3] = tested on: GR; parameters: method as in Lahteenmaki et al. 1987, Kroon et al. 2018; settings: half maximal inhibitory concentration of the GR antagonist; ref Lahteenmaki et al. 1987, Kroon et al. 2018; cited from earlier work
# progesterone receptor = tested on: progesterone receptor; parameters: method as in earlier work; settings: ref Jung-Testas & Baulieu 1983, Gaillard et al. 1984, Kloosterboer et al. 1995, Kroon et al. 2018; cited from earlier work
# GR [4] = settings: mifepristone; ref Havel et al. 1996, van den Heuvel et al. 2016, Kroon et al. 2018; cited from earlier work
# HPA-axis activity = tested on: HPA-axis activity; parameters: method as in Kroon et al. 2018; settings: chronic administration via the food; ref Kroon et al. 2018; cited from earlier work
# androgen receptor = settings: ref Jung-Testas & Baulieu 1983, Gaillard et al. 1984, Kloosterboer et al. 1995, Kroon et al. 2018; cited from earlier work
# [5] = tested on: GR transcriptional activity; test: Acute corticosterone exposure or basal conditions: RT-qPCR of GR target genes in tissues; assay type: in vivo, C57Bl/6J mice; settings: corticosterone 1.5 mg/kg s.c., 1 h; liver, muscle, BAT, WAT, hippocampus; except Sgk1 in muscle, hippocampus and Mt2a in hippocampus
# Experimental: as §1, §2, §3
# [6] = mifepristone 0.1 µM, CORT125281 1 µM
# [7] = corticosterone pellet 5 days, 60 mg/kg/day oral gavage
# [8] = corticosterone pellet 12.5 mg, 5 days, no antagonist
smiles,measurement,setting,value
CC#C[C@]1(O)CC[C@H]2[C@@H]3CCC4=CC(=O)CCC4=C3[C@@H](c3ccc(N(C)C)cc3)C[C@@]21C [mifepristone],binding of corepressor motifs of NCOR1 and NCOR2 (SMRT) by ligand-GR complex,[1]; [6],strongly bound
same,HOMA-IR,male C57Bl/6J mice; [7],improved
same,corticosterone-induced decrease of spleen weight,male C57Bl/6J mice; [7],prevented
same,corticosterone-induced fat mass,male C57Bl/6J mice; [7],non-significantly reduced
same,"corticosterone-induced hyperlipidaemia (plasma triglycerides, total cholesterol)",male C57Bl/6J mice; [7],seemed to modestly reduce
same,"corticosterone-induced immune suppression (total white blood cells, lymphocytes, monocytes, eosinophils)",male C57Bl/6J mice; [7],fully prevented
same,free fatty acid levels,male C57Bl/6J mice; [7],did not affect
same,glucose levels,male C57Bl/6J mice; [7],improved
same,lean mass (reduced by corticosterone),male C57Bl/6J mice; [7],not altered
same,corticosterone-induced hyperinsulinemia,"male C57Bl/6J mice; corticosterone pellet 5 days, 60 mg/kg/day oral gavage, 6-h fast",fully prevented
same,"basal mRNA expression of some GR target genes (Gilz in liver, muscle and BAT; Mt2a in BAT)","[2]; 60 mg/kg/day oral gavage 5 days, sham pellet",reduced
same,"corticosterone-induced expression of GR target genes (Fkbp5, Gilz, Sgk1, Mt2a)","[2]; corticosterone pellet 5 days, 60 mg/kg/day oral gavage, liver, muscle, BAT, WAT, hippocampus",effectively prevented
same,IC50,GR [3],43 nM
same,activity at the progesterone receptor,progesterone receptor,antagonizes
same,partial agonism at GR,GR [4],partial agonistic properties
same,endogenous corticosterone levels,HPA-axis activity,suppressed
same,activity at the androgen receptor,androgen receptor,antagonizes
C[C@]12C[C@H](O)[C@H]3[C@@H](CCC4=CC(=O)CC[C@@]43C)[C@@H]1CC[C@@H]2C(=O)CO [corticosterone],"expression of GR target genes Fkbp5, Gilz, Sgk1, Mt2a after corticosterone injection",[5],upregulated expression of all GR target genes
same,fat mass under subchronic corticosterone exposure,male C57Bl/6J mice; [8],increase
same,lean mass under subchronic corticosterone exposure,male C57Bl/6J mice; [8],reduced
same,plasma insulin under subchronic corticosterone exposure,male C57Bl/6J mice; [8],induced hyperinsulinemia
same,spleen weight under subchronic corticosterone exposure,male C57Bl/6J mice; [8],decreased
same,Eosinophil count,"male C57Bl/6J mice; corticosterone pellet 5 days, no antagonist",Not detected
C[C@]12CCC(=O)C=C1CC[C@@H]1[C@@H]2[C@@H](O)C[C@@]2(C)[C@H]1CC[C@]2(O)C(=O)CO [cortisol],interactions at a number of motifs (dexamethasone-exclusive cluster),[1],without effect
same,ligand-induced interaction at the majority of coregulator motifs,[1]; [6],induced motif binding
C[C@@H]1C[C@H]2[C@@H]3CCC4=CC(=O)C=C[C@]4(C)[C@@]3(F)[C@@H](O)C[C@]2(C)[C@@]1(O)C(=O)CO [dexamethasone],interactions at a number of motifs (dexamethasone-exclusive cluster),[1],induced substantial interactions
same,ligand-induced interaction at the majority of coregulator motifs,[1]; [6],induced motif binding

# — publication PMC7274539, “The selective glucocorticoid receptor antagonist CORT125281 has tissue-specific activity” (The Journal of Endocrinology, 2020)
